Our source for the melting point values is a melting point compilation (Tetko et al.; mined from patent text by program, amines drawn as free bases though some values may be those of a salt).

The melting point is the temperature, or range, at which the solid turns liquid.

Turning to `CC(C)C(=O)C(=Cc1cc(O)c(O)c([N+](=O)[O-])c1)c1ccccc1`, the melting point was 151 to 156 °C. The same measure for `OCc1cn(-c2cccc(SC(F)(F)F)c2)cn1`: 73 to 75 °C; for `COc1ccc(N2CCN(c3c(C)c(C)c4c(c3C)CC(C)(Cn3ccnc3C)O4)CC2)cc1` (configuration not stated): 86 to 90 °C; for `Cc1noc(C)c1NC(=O)c1ccc(OC(F)F)c2oc(C3CCOC3)cc12` (configuration not stated): 156 °C. The same measure for `CC1(C)CCC(C)(C)c2nc3c(nc21)CCc1c(-c2ccc(C(=O)O)cc2)nn(Cc2cccnc2)c1-3`: 250 to 252 °C; for `COC(=O)c1ccc2c(c1)C(SCCCl)c1ccccc1CO2` (configuration not stated): 100 to 102 °C. In the case of `COc1ccc(C2CCc3ccccc3O2)cc1` (configuration not stated) it was 82 to 83 °C. `CCc1c(Cc2[nH]c(C=O)c(C)c2CCCOC(C)=O)[nH]c(Cc2[nH]c(C=O)c(C)c2CCCOC(C)=O)c1CC` displayed a melting point of 179 to 181 °C.

Regarding `COCCCNc1ccc([N+](=O)[O-])cc1C`, the melting point lay within 26 to 28 °C. In the case of `O=c1c(Cl)c(CCl)nc2scnn12` it was 193 to 195 °C; in that of `CCCN1CC(CN2CC(=O)NC2=O)CC2c3cccc4[nH]cc(c34)CC21` (configuration not stated), 168 to 170 °C. Turning to `Cc1nc(-c2ccc(C(F)(F)F)cc2)oc1CSc1ccc(CC(=O)O)cc1Cl`, the melting point fell in the range of 158 to 160 °C.

As to `Cc1cc2nc(Cl)c3cnccc3n2n1`, the melting point came out at 170 °C.

In the case of `O=C1[C@@H]2C[C@H](OCc3ccc4cnccc4c3)CN2C(=O)N1c1cc(Cl)cc(Cl)c1`, the melting point turned out to be 144 °C. The same measure for `Fc1ccc(Cn2c(NC3CCN(CCNc4ncc[nH]4)CC3)nc3ccccc32)cc1`: 226 °C. For the compound `CC(CC(C)(C)C)CP(=O)(O)C1OC(=O)c2ccccc21` (configuration not stated), the melting point was 117 to 121 °C.

As to `COc1ccc(C(=O)N(C(=O)c2ccc(OC)cc2)c2nc3ccc(N(C)C)cc3c(NCc3cccs3)c2C#N)cc1`, the melting point was 171 °C. The same measure for `O=C1CC2(C(=O)N1)C(=O)N(Cc1ccc(Br)cc1F)c1ccccc12` (configuration not stated): 218 to 220 °C. In the case of `Cn1cc(S(=O)(=O)NC(C)(C)C)c(=O)n(C)c1=O` it was 143 to 144 °C; in that of `COC(=O)c1cc([N+](=O)[O-])ccc1-c1ccc([N+](=O)[O-])cc1C(=O)OC`, 176 to 177 °C; in that of `CC(C)(C)c1ccc(C(O)CCCN2CCC(C(O)(c3ccccc3)c3ccc(C(C)(C)C)cc3)CC2)cc1` (configuration not stated), 179 to 182 °C. With `CSC1=NC(C)(C)CN1C(=O)Nc1c(C)cccc1C`, the melting point is 178 to 179 °C. In the case of `CC(Cl)(Cl)C(NC(=O)c1cc(Cl)cc(Cl)c1)NC(=NS(=O)(=O)C(F)(F)F)Nc1cccnc1` (configuration not stated) it was 213 to 215 °C. In the case of `COc1cc(OC)c2c(=O)c3oc4cc(OC)ccc4c3oc2c1` it was 272 to 274 °C; in that of `CCOC(=N)CC1(C)OCCc2c1[nH]c1ccccc21` (configuration not stated), 140 to 141 °C.

For `CCOC(=O)CC(NC(=O)C=CS(=O)c1ccccc1)C(=O)OCC` (configuration not stated), the melting point is 121 to 123 °C.

The compound `CCOC(=O)c1cnn2c1nc(OCC)c1cnc3c(cnn3CC)c12` came in with a melting point of 167 to 168 °C. In the case of `Cc1c(-c2ccc(F)cc2)nc(-c2ccccc2)n1C(C)C` it was 161 to 162 °C. The same measure for `O=c1nc(-c2cccc(CCOP(=O)(O)O)n2)sc2ccccc12`: 235 to 237 °C; for `O=S(=O)(c1ccc(C(CC2CCOCC2)c2ccc(-c3nnc(CO)s3)[nH]2)cc1)C1CC1` (configuration not stated): 208 to 209 °C; for `CCOc1ccnc(C(C)NC(=O)Nc2ccc(Br)cn2)c1F` (configuration not stated): 143 to 145 °C. With `CC(C)[C@@H](C(=O)NCCCC(c1ccc(F)cc1)c1ccc(F)cc1)N(C)C1CCCCC1`, the melting point was 82 to 86 °C. In the case of `CC1=C(C)C(=O)C(CC[C@](C)(O)CO)=C(C)C1=O` it was 109 to 112 °C. `O=C(O)c1cc2ccc(Cl)cc2[nH]c1=O` came in with a melting point of 317 to 318 °C. The same measure for `Cc1nc2c(-c3ccc(-c4ccccc4)cc3)nc3ccc(F)cc3c2c(=O)o1`: 188 to 189 °C. In the case of `CCCCCCCCCCCCCCCCCC(O)c1ccc(Cl)c(C(=O)O)c1` (configuration not stated) it was 106 to 107 °C; in that of `CC(=O)Nc1cccc(-c2ccnc3c(Cc4ccccc4)cnn23)c1`, 205 to 207 °C; in that of `CCCCCC1=CC(=O)C2=C(OC(C)(C)c3ccc(C)cc32)C1=O`, 53 to 54 °C. Compound `CSC(=S)C1(c2cccc(C)n2)SCCCS1` showed a melting point of 92 °C. The same measure for `O=C(Cn1c(-c2ccc(F)cc2)nc2cccnc21)OCCO`: 166 to 168 °C. Compound `NS(=O)(=O)c1ccccc1S(N)(=O)=O` displayed a melting point of 250 °C. In the case of `Cc1cccc(-c2cn(C)cc(-c3cccc(C(F)(F)F)c3)c2=O)c1` it was 155 to 157 °C. The same measure for `O=C(CCc1cccnc1)NCCCCC1CCN(C(c2ccccc2)c2ccccc2)CC1`: 139 °C; for `CCN(CC)S(=O)(=O)c1cc(-c2csc(=Nc3ccccc3C)n2C)ccc1Cl`: 166 °C; for `c1ccc(N2CCN(CCc3nnn[nH]3)CC2)cc1`: 190 to 194 °C. For `C#CCOc1ccccc1-n1cnc2cc(Nc3nnc(C)c4ccccc34)ccc21`, the melting point lay in the range of 88 to 90 °C.

The compound `Cc1cc(C(=S)NCc2cccc([N+](=O)[O-])c2)c(OCC(=O)O)cc1F` returned a melting point of 137 to 139 °C. `CC1(C)Oc2ccc(S(C)(=O)=O)cc2[C@@H](N2CCSC2=NC#N)[C@@H]1O` (relative stereo) had a melting point of 304 to 307 °C. The same measure for `Clc1ccc2cccc(-c3cccc4ccccc34)c2n1`: 133 to 135 °C; for `CCOC(=O)C1(F)C(=O)NC(=O)NC1O/N=C\c1ccco1` (configuration not stated): 152 to 153 °C; for `CC(C)Sc1ccc(NC(=O)c2cc(Cl)ccc2NS(=O)(=O)c2ccc(Cl)cc2)cc1`: 168 to 169 °C.

Turning to `COc1ccc2cc(C(=O)C(C)OS(=O)(=O)c3ccc(C)cc3)ccc2c1` (configuration not stated), the melting point is 85 to 87 °C.

The compound `C=CCOCc1c(C=O)sc2c(=O)c(C(=O)NCc3ccc(Cl)cc3)cn(C)c12` gave a melting point of 144 to 147 °C. `COc1ccc(C(=NO)c2cc(F)ccc2F)c(O)c1Cl`: the melting point is 209 to 210 °C. The same measure for `COc1ccc(S(=O)(=O)Nc2cccc(C)c2N)cc1`: 177 to 178 °C. `CCCCCCCCCCCCOC(=O)c1ccc(Cl)c(N)c1`: the melting point was in the range of 58.3 to 59.5 °C. In the case of `CCC1(c2cccc(OC)c2)CCCCN(C)C1=O` (configuration not stated) it was 62 to 64 °C.

Take `CCNS(=O)(=O)c1cccc(NC(=O)c2cnn3c(C(F)F)cc(-c4ccc(C(F)(F)F)cc4)nc23)c1`: the melting point amounted to 259 °C. Take `CCCCCCCC(=O)CCCCCC(=O)N[C@@H](C)C(=O)N[C@H](CCC(=O)OCc1ccccc1)C(N)=O`: the melting point was 137 to 141 °C. In the case of `COC(=O)c1cc(C(=O)N2CCC(CO)CC2)c2cc(Cc3ccc(F)cc3)cnc2c1O` it was 161 to 162 °C; in that of `CCc1c(Cl)nc(NC=O)nc1Cl`, 116 to 118 °C; in that of `CS(=O)(=O)c1ccc(-c2cc(CCCO[N+](=O)[O-])nn2C2CCCCC2)cc1`, 77 °C. In the case of `CCOc1ccc2c(c1)C(C)=CC(C)(C)N2C(=O)OC` it was 54.5 to 56.5 °C. The same measure for `CC(=O)Oc1ccc(Nc2nc(N)ncc2Oc2ccc(Cl)cc2)cc1`: 132 to 133 °C; for `CCCOc1ccc(CCC(=O)N2CCN(C)CC2)cc1-c1nc2c(C)cccc2c(=O)[nH]1`: 184 to 185 °C. On to `Cc1c(SCCCSc2ccc3ncc([N+](=O)[O-])n3n2)ccnc1C(S)c1nc2cc(S(C)(=O)=O)ccc2[nH]1` (configuration not stated), for which the melting point is 155 to 156 °C. For `COC(=O)c1c(C)c(OC)cc(O[Si](C)(C)C(C)(C)C(C)C)c1C=O`, the melting point lay within 69 to 70 °C. Compound `CCCN(CCCCNC(=O)N1CCN(c2ccccc2)CC1)C1CCc2ncsc2C1` (configuration not stated) gave a melting point of 120 °C. In the case of `CCn1cc(C(=O)NCc2ccc(Cl)cc2)c(=O)c2cc(I)sc21` it was 214 to 218 °C; in that of `CN(C)Cc1cc(Cc2ccccc2)c(O)c(Cc2ccccc2)c1`, 112 to 114 °C; in that of `CCOC(=O)C(=O)NNc1ccc([N+](=O)[O-])cc1`, 187 to 188 °C.

As for `COc1ccc2c(c1)c(CC#N)cn2C(=O)OC(C)(C)C`, the melting point was 130 °C.

As to `CCOCC1COc2cc(C(=O)O)c(N)cc2O1` (configuration not stated), the melting point fell in the range of 124 to 130 °C.

Consider `COc1ccc(Cc2cc(OC)c(OC)c(OC)c2)cc1`, for which the melting point lay in the range of 66 to 67 °C. In the case of `N#CCc1ccc(NC(=O)C=C2CC(C(=O)O)Nc3cc(Cl)cc(Cl)c32)cc1` (racemic) it was 200 to 202 °C. `CC1Nc2ccc(S(=O)(=O)N3CCCCC3)cc2S(=O)(=O)N1` (configuration not stated) came in with a melting point of 255 to 256 °C. The same measure for `CC[C@H](NC(=O)OC(C)(C)C)c1nc2c(C(F)(F)F)cccc2c(=O)o1`: 136 to 138 °C. The same measure for `CCCc1nc2c(nc1O)CCCC2`: 131 to 133 °C; for `COCCN(C)c1c(S(=O)(=O)C(F)(F)F)c(C#N)nn1-c1c(Cl)cc(C(F)(F)F)cc1Cl`: 75 °C; for `CC(C)(C)OC(=O)CN1CCC2(CCNCC2)OC1=O`: 110 to 115 °C. `COCc1c(C(=O)O)ncc2[nH]c3cccc(CN4CCOCC4)c3c12` gave a melting point of 253 to 255 °C. `CC(=O)OC1CCC2C3CCC4=CC(=O)C(I)CC4(C)C3CCC12C` (configuration not stated) gave a melting point of 92 °C. Compound `CCOC(=O)Cc1cc(-c2ccccc2)nc2ccccc12` gave a melting point of 180 °C. In the case of `O=S(=O)(Nc1ccc2c(OCc3ccc(Cl)cc3Cl)cccc2c1)C(F)(F)F`, the melting point was in the range of 142 to 144 °C.

The compound `CC#CNC(=C[N+](=O)[O-])NCCSCc1ccccn1` yielded a melting point of 147 to 148 °C.

`c1ccc(C(OC2CCN(CCCNc3ccc4nncn4n3)CC2)c2ccccc2)cc1` had a melting point of 167 to 168 °C. The same measure for `CN1C(=O)CCCc2ccc(NC(=O)c3ccc(C(=O)O)cc3)cc21`: greater than 270 °C.
